From patent US10175256B2, “Compositions and methods utilizing lysophosphatidylcholine scaffolds” (National University Of Singapore, priority 2013, dated 2019)
Where “and” joins values, the source holds several entries; their conditions need not be identical. Equal values may be shown once.

Columns and labels:
mouse Mfsd2a [1] = molecular target: T1, mouse Mfsd2a (Mus musculus, UniProt Q9DA75); test: Cell-based free fatty acid transport/uptake in Mfsd2a expressing HEK293 cells (mass spectrometry, TLC; Table 1); details: replicate columns; for Amount of lipid species, mol percent in total phospholipid analysed / Amount of each lipid species normalized to internal standard, mol percent in total phospholipid analysed: Mfsd2a expressing HEK293 cells
T1 construct: expressed in transfected cells; host or cells: HEK293
T1 sequence (Q9DA75 1-534): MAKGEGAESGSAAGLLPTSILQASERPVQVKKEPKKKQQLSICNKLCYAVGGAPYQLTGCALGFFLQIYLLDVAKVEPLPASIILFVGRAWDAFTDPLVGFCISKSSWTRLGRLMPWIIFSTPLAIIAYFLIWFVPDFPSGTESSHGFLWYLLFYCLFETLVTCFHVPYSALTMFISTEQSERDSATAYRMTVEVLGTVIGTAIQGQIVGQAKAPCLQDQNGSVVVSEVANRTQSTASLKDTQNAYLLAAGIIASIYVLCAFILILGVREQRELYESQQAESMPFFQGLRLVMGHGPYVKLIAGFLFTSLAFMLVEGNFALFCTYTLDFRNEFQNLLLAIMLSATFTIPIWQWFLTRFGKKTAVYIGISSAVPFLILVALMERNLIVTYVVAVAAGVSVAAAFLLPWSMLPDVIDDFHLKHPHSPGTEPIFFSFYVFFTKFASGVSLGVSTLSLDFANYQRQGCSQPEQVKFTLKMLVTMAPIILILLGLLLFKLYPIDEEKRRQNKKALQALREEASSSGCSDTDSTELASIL
Procedure: (§1) FIG. 12. […] Std: free [^14C]-DHA. b. TLC analysis of phospholipids and neutral lipids of HEK293 cells transfected with mouse Mfsd2a and mutants after overnight incubation with 100 μM [^14C]-oleate. TLC protocol used was described in Methods. PC: phosphatidylcholine, PE: phosphatidylethanolamine, TAG: triglyceride, CE: cholesteryl ester.
(§2) For tissue lipid analysis, brain, liver, and heart of female WT and KO mice with age of 7-8 weeks born to HET mothers, and brains from e18.5 embryos were collected and immediately frozen with liquid nitrogen until extraction. Lipid extraction was followed by chloroform/methanol method. For cell-based free fatty acid transport, lipids from HEK293 cells expressing mouse Mfsd2a and mock controls after overnight treatment with 100 μM docosahexaenoic, arachidonic, eicosapentaenoic, alpha-linolenic, linoleic, oleic, palmitic acids in BSA complex were extracted using HIP buffer (hexane:iso-propanol 3:2, per volume) and dried under N2 gas. Phospholipid species were measured by high performance liquid chromatography (HPLC) 1100 system (Agilent) coupled with an Triple Quadrupole/Ion Trap mass spectrometer (4000Qtrap, Applied Biosystem). Levels of individual phospholipid species were analyzed as described previously and quantified using spiked internal standards that includes PC-14:0/14:0, PE-14:0/14:0, PS-14:0/14:0 (Avanti Polar Lipids, Alabaster, Ala., USA), and dioctanoyl PI (Echelon Biosciences, Inc., Salt Lake City, Utah, USA).

mouse Mfsd2a [2] = test: as above; details: MS, replicate columns; for Amount of each lipid species normalized to internal standard, mol percent in total phospholipid analysed / Amount of lipid species, mol percent in total phospholipid analysed: mock HEK293 cells
Procedure: as §1, §2

[3] = Mfsd2a expressing HEK293 cells incubated with 100 uM Arachidonic fatty acid/BSA complex overnight, MS
[4] = 100 uM Alpha-linolenic fatty acid/BSA complex overnight
[5] = 100 uM Linoleic fatty acid/BSA complex overnight
[6] = 100 uM Docosahexaenoic acid/BSA complex overnight, MS
[7] = 100 uM Eicosapentaenoic acid/BSA complex overnight, MS
[8] = 100 uM Oleic fatty acid/BSA complex overnight, MS
[9] = mock HEK293 cells incubated with 100 uM Arachidonic fatty acid/BSA complex overnight
[10] = 100 uM Docosahexaenoic acid/BSA complex overnight
[11] = 100 uM Eicosapentaenoic acid/BSA complex overnight
[12] = 100 uM Oleic fatty acid/BSA complex overnight
[13] = Mfsd2a expressing HEK293 cells incubated with 100 uM Eicosapentaenoic fatty acid/BSA complex overnight, MS
[14] = 100 uM Linoleic fatty acid/BSA complex overnight, MS
[15] = mock HEK293 cells incubated with 100 uM Eicosapentaenoic fatty acid/BSA complex overnight

Compound	Amount of each lipid species, mol percent in total phospholipid analysed (mouse Mfsd2a [1]; [3])	Amount of lipid species, mol percent in total phospholipid analysed (mouse Mfsd2a [1]; [4])	Amount of lipid species, mol percent in total phospholipid analysed (mouse Mfsd2a [1]; [5])	Amount of each lipid species normalized to internal standard, mol percent in total phospholipid analysed (mouse Mfsd2a [1]; [6])	Amount of each lipid species normalized to internal standard, mol percent in total phospholipid analysed (mouse Mfsd2a [1]; [7])	Amount of lipid species, mol percent in total phospholipid analysed (mouse Mfsd2a [1]; [8])	Amount of each lipid species, mol percent in total phospholipid analysed (mouse Mfsd2a [2]; [9])	Amount of each lipid species normalized to internal standard, mol percent in total phospholipid analysed (mouse Mfsd2a [2]; [10])	Amount of each lipid species normalized to internal standard, mol percent in total phospholipid analysed (mouse Mfsd2a [2]; [11])	Amount of lipid species, mol percent in total phospholipid analysed (mouse Mfsd2a [2]; [12])	Amount of each lipid species, mol percent in total phospholipid analysed (mouse Mfsd2a [1]; [13])	Amount of lipid species, mol percent in total phospholipid analysed (mouse Mfsd2a [1]; [14])	Amount of each lipid species, mol percent in total phospholipid analysed (mouse Mfsd2a [2]; [15])	Amount of lipid species, mol percent in total phospholipid analysed (mouse Mfsd2a [2]; [5])
CCCCCCCCCCCCCCCC(=O)OC[C@@H](O)COP(=O)([O-])OCC[N+](C)(C)C [LysoPC16:0]	0.02415 mol percent and 0.0241 mol percent and 0.02855 mol percent and 0.02172 mol percent	0.02586 mol percent and 0.02533 mol percent and 0.02841 mol percent and 0.02293 mol percent	0.02176 mol percent and 0.01959 mol percent and 0.02134 mol percent and 0.02259 mol percent	0.03726 mol percent and 0.03481 mol percent and 0.03081 mol percent and 0.02684 mol percent	0.02694 mol percent and 0.02534 mol percent and 0.02456 mol percent and 0.02331 mol percent	0.01777 mol percent and 0.01495 mol percent and 0.01595 mol percent and 0.01964 mol percent	0.02322 mol percent and 0.02517 mol percent and 0.02807 mol percent	0.03115 mol percent and 0.02846 mol percent and 0.03055 mol percent	0.02508 mol percent and 0.02349 mol percent and 0.02482 mol percent	0.01539 mol percent and 0.01577 mol percent and 0.0163 mol percent				
CCCCCCCCCCCCCCCCCC/C=C\OC[C@@H](O)COP(=O)(O)OCCN [LysoPE20:0p]	0.3303 mol percent and 0.2723 mol percent and 0.1846 mol percent and 0.2172 mol percent						0.2922 mol percent and 0.183 mol percent and 0.1158 mol percent							
CCCCCCCCCCCCCCCC(=O)OC[C@@H](O)COP(=O)(O)O[C@@H]1[C@H](O)[C@H](O)[C@@H](O)[C@H](O)[C@H]1O [LP116:0]				0.003896 mol percent and 0.00362 mol percent and 0.004663 mol percent and 0.002596 mol percent				0.003621 mol percent and 0.004425 mol percent and 0.003813 mol percent						
CCCCCCCCCCCCCCCC(=O)OC[C@@H](O)COP(=O)(O)OC1[C@H](O)[C@H](O)C(O)[C@H](O)[C@H]1O (some centres unmarked) [LPI16:0]		0.002614 mol percent and 0.002235 mol percent and 0.003861 mol percent and 0.003103 mol percent				0.003305 mol percent and 0.002531 mol percent and 0.002415 mol percent and 0.003238 mol percent				0.003369 mol percent and 0.003584 mol percent and 0.002627 mol percent	0.00427 mol percent and 0.002996 mol percent and 0.00331 mol percent and 0.004891 mol percent	0.002421 mol percent and 0.002583 mol percent and 0.004097 mol percent and 0.003665 mol percent	0.004685 mol percent and 0.004731 mol percent and 0.003589 mol percent	0.003029 mol percent and 0.004291 mol percent and 0.00407 mol percent
PE38:5	1.517 mol percent and 1.746 mol percent and 1.538 mol percent and 1.292 mol percent	2.013 mol percent and 1.902 mol percent and 1.704 mol percent and 1.689 mol percent		0.6996 mol percent and 0.7565 mol percent and 0.8996 mol percent and 0.9147 mol percent		0.6441 mol percent and 0.6477 mol percent and 0.57 mol percent and 0.5862 mol percent	1.648 mol percent and 1.509 mol percent and 1.4 mol percent	0.6844 mol percent and 0.8632 mol percent and 0.5129 mol percent		0.809 mol percent and 0.6822 mol percent and 0.456 mol percent	0.8525 mol percent and 0.7862 mol percent and 1.249 mol percent and 0.8033 mol percent	0.714 mol percent and 1.007 mol percent and 0.7471 mol percent and 0.7035 mol percent	1.214 mol percent and 0.8982 mol percent and 0.9456 mol percent	0.9188 mol percent and 0.8836 mol percent and 0.7914 mol percent
CCCCCCCCCCCCCCCCCC(=O)OC[C@@H](O)COP(=O)(O)OCCN [LysoPE18:0]	0.2569 mol percent and 0.2304 mol percent and 0.2461 mol percent and 0.117 mol percent	0.3947 mol percent and 0.2832 mol percent and 0.2186 mol percent and 0.3429 mol percent	0.1058 mol percent and 0.1018 mol percent and 0.1894 mol percent and 0.0869 mol percent	0.1666 mol percent and 0.2308 mol percent (2×) and 0.1334 mol percent	0.1092 mol percent and 0.307 mol percent and 0.1931 mol percent and 0.2135 mol percent	0.09201 mol percent and 0.1193 mol percent and 0.148 mol percent and 0.05384 mol percent	0.1798 mol percent and 0.2163 mol percent and 0.1654 mol percent	0.2527 mol percent and 0.249 mol percent and 0.1539 mol percent	0.2356 mol percent and 0.2515 mol percent and 0.1233 mol percent	0.168 mol percent and 0.1023 mol percent and 0.04024 mol percent				
CCCCCCCCCCCCCCCC/C=C\OC[C@@H](O)COP(=O)(O)OCCN [Lyso PE18:0p]		0.5329 mol percent and 0.4653 mol percent and 0.37 mol percent and 0.5715 mol percent	0.3438 mol percent and 0.3054 mol percent and 0.2525 mol percent and 0.1986 mol percent	0.3998 mol percent and 0.8078 mol percent and 0.4971 mol percent and 0.5526 mol percent	0.4834 mol percent and 0.7431 mol percent and 0.4828 mol percent and 0.4728 mol percent	0.4754 mol percent and 0.4091 mol percent and 0.4604 mol percent and 0.341 mol percent		0.3791 mol percent and 0.5478 mol percent and 0.5875 mol percent	0.7711 mol percent and 0.3952 mol percent and 0.4625 mol percent	0.336 mol percent and 0.5628 mol percent and 0.5097 mol percent				
